Each structure is given as a SMILES string.

This assay relates to ICR mice. Description: Hypoglycemic activity test. It is filed as in vivo. Particulars: compared with compound 1 of the invention. As for the experimental part:
Using ICR mice (male, 7 to 9 weeks, Charles River Laboratories Japan Inc.) the effects of each of the tested compounds on blood glucose levels were measured. Each compound was dissolved in a mixture of 60/40 of Gelucire 44/14 (trade name, manufactured by Gatefosse) and PEG 400, and the resulting mixture was orally administered (30 mg/kg, 10 mL/kg) to the mice, which had not been fed for two hours. Blood was collected by a blood collection tube coated with dipotassium ethylenediamine tetraacetate from the tail vein before administration (pre-value) and at points 0.5, 2, and 4 hours after administration. The collected blood was separated by centrifugation (4° C., 3,600×g, 3 minutes), to obtain blood plasma samples.
Each sample was diluted 5-fold with physiological saline, and the blood glucose level was measured using glucose CII-test Wako (trade name, manufactured by Wako Pure Chemical Industries Ltd.). 10 μL each of one of the samples, physiological saline, and 100 mg/dL of glucose standard solution (200 mg/dL of glucose standard solution diluted two-fold with physiological saline) were placed in each well of a 96 well flat bottom plate. Then, 150 μL per well of a developing solution was added, and the color was developed by standing for 5 minutes at 37° C. Measurement was carried out at OD 505 nm using an En Vision 2103 Multilabel Reader (trade name, manufactured by PerkinElmer). The decrease in Σ glucose from the decrease in glucose of each collected point with respect to the pre-value (average of the decrease in glucose of each collected point with respect to the pre-value) was calculated.
With `O=C(Nc1nccs1)C(CC1CC(F)C(F)C1)c1ccc(S(=O)(=O)C2CC2)cc1` (single isomer, unassigned; (-)) [(−)-2-[4-(Cyclopropylsulfonyl)phenyl]-3-[(1β,3α,4α)-3,4-difluorocyclopentyl]-N-(thiazol-2-yl)propionamide], the “hypoglycemic activity (in words)” value was “do not exhibit high hypoglycemic activity”. For the compound `O=C(Nc1nccs1)C(CC1CC(F)C(F)C1)c1ccc(S(=O)(=O)C2CC2)cc1` (single isomer, unassigned; (+)) [(+)-2-[4-(cyclopropylsulfonyl)phenyl]-3-[(1β,3α,4α)-3,4-difluorocyclopentyl]-N-(thiazol-2-yl)propionamide], the “hypoglycemic activity (in words)” value was “do not exhibit high hypoglycemic activity”.

Consider `O=C(Nc1nccs1)C(C[C@H]1C[C@@H](F)[C@@H](F)C1)c1ccc(S(=O)(=O)C2CC2)cc1` (single isomer, unassigned; (+)) [Reference Example 3, (+)-2-[4-(Cyclopropylsulfonyl)phenyl]-3-[(1α,3α,4α)-3,4-difluorocyclopentyl]-N-(thiazol-2-yl)propionamide], for which the “hypoglycemic activity (in words)” value is recorded as “do not exhibit high hypoglycemic activity”.

(Values after patent publication US8034819B2, “Glucokinase activator” (Kyorin Pharmaceutical Co., Ltd., priority 2007, dated 2011).)
